# Source: patent US11058636B2, “Dispersion process of adapalene in a gel preparation” (ZHAOKE (GUANGZHOU) OPHTHALMIC DRUG COMPANY LIMITED, priority 2017, dated 2021)
# Like-named read-outs stand apart in the source and are kept apart here.
# Columns and labels:
# RARγ = target: T1, RARγ (Homo sapiens, UniProt P13631); conditions: cited from earlier work
# T1 sequence (P13631 1-454): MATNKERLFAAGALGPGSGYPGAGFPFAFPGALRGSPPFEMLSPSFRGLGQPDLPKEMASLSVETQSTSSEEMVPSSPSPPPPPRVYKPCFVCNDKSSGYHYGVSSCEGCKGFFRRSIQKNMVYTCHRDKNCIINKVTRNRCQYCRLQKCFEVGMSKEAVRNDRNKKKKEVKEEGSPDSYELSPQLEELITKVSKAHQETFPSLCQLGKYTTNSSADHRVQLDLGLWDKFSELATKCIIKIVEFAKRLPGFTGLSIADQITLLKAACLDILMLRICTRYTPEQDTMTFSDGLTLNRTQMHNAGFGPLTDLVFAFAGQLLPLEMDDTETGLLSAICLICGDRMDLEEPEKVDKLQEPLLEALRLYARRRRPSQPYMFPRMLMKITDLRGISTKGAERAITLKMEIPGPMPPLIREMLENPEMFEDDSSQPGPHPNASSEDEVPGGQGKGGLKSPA
# RARα = target: T2, RARα (Homo sapiens, UniProt P10276); conditions: cited from earlier work
# T2 sequence (P10276 1-462): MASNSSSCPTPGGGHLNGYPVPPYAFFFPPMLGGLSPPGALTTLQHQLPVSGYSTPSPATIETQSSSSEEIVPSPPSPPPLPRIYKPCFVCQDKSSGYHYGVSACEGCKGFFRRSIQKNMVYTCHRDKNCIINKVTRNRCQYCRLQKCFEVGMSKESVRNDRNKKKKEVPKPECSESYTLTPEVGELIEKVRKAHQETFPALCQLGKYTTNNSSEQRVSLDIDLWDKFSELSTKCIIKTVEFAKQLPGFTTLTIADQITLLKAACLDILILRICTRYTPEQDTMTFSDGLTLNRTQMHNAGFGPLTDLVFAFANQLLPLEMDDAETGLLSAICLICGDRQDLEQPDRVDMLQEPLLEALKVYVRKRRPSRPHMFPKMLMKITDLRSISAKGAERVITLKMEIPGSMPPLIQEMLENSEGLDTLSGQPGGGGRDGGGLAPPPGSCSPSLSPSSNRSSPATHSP
# RARPβ = target: T3, RARPβ (Homo sapiens, UniProt P10826); conditions: cited from earlier work
# T3 sequence (P10826 1-455): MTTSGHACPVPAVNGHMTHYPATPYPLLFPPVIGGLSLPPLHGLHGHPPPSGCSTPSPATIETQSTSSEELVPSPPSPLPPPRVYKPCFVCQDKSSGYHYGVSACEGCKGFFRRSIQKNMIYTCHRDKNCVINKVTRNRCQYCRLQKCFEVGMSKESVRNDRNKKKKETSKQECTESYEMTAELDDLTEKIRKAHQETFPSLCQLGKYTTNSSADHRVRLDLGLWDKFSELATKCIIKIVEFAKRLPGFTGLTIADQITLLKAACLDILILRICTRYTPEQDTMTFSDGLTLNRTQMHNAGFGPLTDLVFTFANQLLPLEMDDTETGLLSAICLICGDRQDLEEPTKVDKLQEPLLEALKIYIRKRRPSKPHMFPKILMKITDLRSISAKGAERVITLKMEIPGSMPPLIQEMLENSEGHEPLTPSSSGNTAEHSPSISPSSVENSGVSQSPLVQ
# [1] = Particle size of pulverized adapalene raw material, laser particle size analyzer, dry detection; format: physicochemical; conditions: raw material after jet-mill pulverization, dry method detection (Example 3)
# Source text: Method: Taking the appropriate amount of this product, using Malvern MS3000 laser particle size analyzer, dry detection, D50 should not greater than 10 μm, D90 should not greater than 30 um.
# After pulverization the raw materials of adapalene was subjected to dry method detection and D50 was found not more than 10 um, D90 was found not more than 30 um. Adapalene was pulverized using a jet mill to achieve the target particle size.
# acne = conditions: animals; cited from earlier work
# [2] = cited from earlier work
# [3] = tested on: glutamine invertase of keratinocytes; conditions: in vitro; cited from earlier work
smiles,measurement,setting,value
"COc1ccc(-c2ccc3cc(C(=O)O)ccc3c2)cc1C12CC3CC(CC(C3)C1)C2 [Adapalene, 6-[3-(1-adamantyl)-4-methoxyphenyl]-2-naphthoic acid]",binding to RARγ,RARγ,mainly binds
same,binding to RARα,RARα,weak binding
same,binding to RARPβ,RARPβ,mainly binds
same,D50,[1],not more than 10 um
same,D90,[1],not more than 30 um
same,effects in animal experiments,acne,acne dissolution and local anti-inflammatory effects
same,solubility,[2]; in ethanol,insoluble
same,solubility,[2]; in tetrahydrofuran,slightly soluble
same,solubility,[2]; in water,insoluble
same,inhibition of glutamine invertase of keratinocytes,[3],inhibits
